ChEMBL document CHEMBL1201862, “PubChem BioAssay data set” (2004)
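Growth conditions: 96-well plates. Treatment: test compound, 48 hours, 5 concentrations. Analysis: linear interpolation between bracketing concentrations; unreached endpoints set to highest concentration. The concentration for 50% growth inhibition is given as GI50.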 The source made the active and inactive calls. Cut-off read from the data, not from the text of the source: active = GI50 up to about 1.1 µM and inactive = higher.

Assays:
Assay in all cases: NCI-60 cell line screen, 48 h
[1] = tested on: LOX IMVI
[2] = tested on: ACHN
[3] = tested on: Malme-3M
[4] = tested on: SF-268
[5] = tested on: U-251
[6] = tested on: SR
[7] = tested on: KM12
[8] = tested on: NCI-H522
[9] = tested on: T47D
[10] = tested on: OVCAR-8
[11] = tested on: DU-145
[12] = tested on: SK-MEL-2
[13] = tested on: BT-549
[14] = tested on: NCI/ADR-RES
[15] = tested on: TK-10
[16] = tested on: OVCAR-4
[17] = tested on: CAKI-1
[18] = tested on: SK-OV-3
[19] = tested on: SNB-75
[20] = tested on: NCI-H460
[21] = tested on: MDA-MB-435
[22] = tested on: SN12C
[23] = tested on: UACC-257
[24] = tested on: SNB-19
[25] = tested on: HCT-116
[26] = tested on: SK-MEL-28
[27] = tested on: M14
[28] = tested on: NCI-H23
[29] = tested on: HT-29
[30] = tested on: SF-539
[31] = tested on: OVCAR-3
[32] = tested on: Hs-578T
[33] = tested on: 786-0
[34] = tested on: A549
[35] = tested on: SF-295
[36] = tested on: UACC-62
[37] = tested on: CCRF-CEM
[38] = tested on: UO-31
[39] = tested on: PC-3
[40] = tested on: HCT-15
[41] = tested on: MDA-N
[42] = tested on: EKVX
[43] = tested on: A498
[44] = tested on: MDA-MB-231
[45] = tested on: HOP-62
[46] = tested on: RPMI-8226
[47] = tested on: SK-MEL-5
[48] = tested on: SW-620
[49] = tested on: IGROV-1
[50] = tested on: MCF7
[51] = tested on: HL-60
[52] = tested on: HOP-92
[53] = tested on: MOLT-4
[54] = tested on: RXF 393
[55] = tested on: NCI-H226
[56] = tested on: K562
[57] = tested on: OVCAR-5
[58] = tested on: COLO 205

## CCOC(=O)CCC1(C(=O)O[C@@H]2C[C@H](C)CC[C@H]2C(C)C)CCCCC1=O (some centres not stated)
[1]
  GI50: > 100 µM (inactive)
[2]
  GI50: 74.8 µM (inactive)
[3]
  GI50: > 100 µM (inactive)
[4]
  GI50: > 100 µM (inactive)
[5]
  GI50: 63.2 µM (inactive)
[6]
  GI50: 41.2 µM (inactive)
[7]
  GI50: 50.4 µM (inactive)
[8]
  GI50: 67.6 µM (inactive)
[9]
  GI50: 34.8 µM (inactive)
[10]
  GI50: > 100 µM (inactive)
[11]
  GI50: > 100 µM (inactive)
[12]
  GI50: > 100 µM (inactive)
[13]
  GI50: > 100 µM (inactive)
[14]
  GI50: 55.2 µM (inactive)
[15]
  GI50: 56.4 µM (inactive)
[16]
  GI50: 61.2 µM (inactive)
[17]
  GI50: 40.7 µM (inactive)
[18]
  GI50: > 100 µM (inactive)
[19]
  GI50: 42 µM (inactive)
[20]
  GI50: 36.6 µM (inactive)
[21]
  GI50: 74.1 µM (inactive)
[22]
  GI50: > 100 µM (inactive)
[23]
  GI50: 23.3 µM (inactive)
[24]
  GI50: > 100 µM (inactive)
[25]
  GI50: 41.7 µM (inactive)
[26]
  GI50: 74 µM (inactive)
[27]
  GI50: 56.5 µM (inactive)
[28]
  GI50: 74.8 µM (inactive)
[29]
  GI50: 43.3 µM (inactive)
[30]
  GI50: > 100 µM (inactive)
[31]
  GI50: 45.8 µM (inactive)
[32]
  GI50: > 100 µM (inactive)
[33]
  GI50: > 100 µM (inactive)
[34]
  GI50: 55.3 µM (inactive)
[35]
  GI50: 65.8 µM (inactive)
[36]
  GI50: 94.6 µM (inactive)
[37]
  GI50: 46.1 µM (inactive)
[38]
  GI50: > 100 µM (inactive)
[39]
  GI50: 39.3 µM (inactive)
[40]
  GI50: 41.7 µM
[41]
  GI50: 79.4 µM (inactive)
[42]
  GI50: 41.3 µM (inactive)
[43]
  GI50: > 100 µM (inactive)
[44]
  GI50: > 100 µM (inactive)
[45]
  GI50: > 100 µM (inactive)
[46]
  GI50: 28.7 µM (inactive)
[47]
  GI50: 31.1 µM (inactive)
[48]
  GI50: > 100 µM (inactive)
[49]
  GI50: > 100 µM (inactive)
[50]
  GI50: 58.6 µM (inactive)
[51]
  GI50: 18.2 µM (inactive)
[52]
  GI50: 52.4 µM (inactive)
[53]
  GI50: 29.2 µM (inactive)
[54]
  GI50: 55.7 µM (inactive)
[55]
  GI50: > 100 µM (inactive)
[56]
  GI50: 28.1 µM (inactive)
[57]
  GI50: > 100 µM (inactive)
[58]
  GI50: 65 µM (inactive)

## Fc1cccc(Cl)c1/C=N\N=C1c2ccccc2-c2ccccc21
[1]
  GI50: > 100 µM (inactive)
[2]
  GI50: 95.3 µM (inactive)
[3]
  GI50: 76.7 µM (inactive)
[4]
  GI50: > 100 µM (inactive)
[5]
  GI50: 78.9 µM (inactive)
[6]
  GI50: 51.2 µM (inactive)
[7]
  GI50: 40.7 µM (inactive)
[8]
  GI50: > 100 µM (inactive)
[9]
  GI50: 30 µM (inactive)
[10]
  GI50: 79.8 µM (inactive)
[11]
  GI50: > 100 µM (inactive)
[12]
  GI50: > 100 µM (inactive)
[13]
  GI50: > 100 µM (inactive)
[14]
  GI50: > 100 µM (inactive)
[15]
  GI50: > 100 µM (inactive)
[16]
  GI50: 49.4 µM (inactive)
[17]
  GI50: > 100 µM (inactive)
[18]
  GI50: > 100 µM (inactive)
[20]
  GI50: 79.8 µM (inactive)
[21]
  GI50: 36 µM (inactive)
[22]
  GI50: > 100 µM (inactive)
[23]
  GI50: > 100 µM (inactive)
[24]
  GI50: 98.9 µM (inactive)
[25]
  GI50: > 100 µM (inactive)
[26]
  GI50: 76 µM (inactive)
[27]
  GI50: > 100 µM (inactive)
[28]
  GI50: > 100 µM (inactive)
[29]
  GI50: 58.9 µM (inactive)
[30]
  GI50: 49.4 µM (inactive)
[31]
  GI50: 69.2 µM (inactive)
[32]
  GI50: 34.3 µM (inactive)
[33]
  GI50: > 100 µM (inactive)
[34]
  GI50: 70 µM (inactive)
[35]
  GI50: 61.7 µM (inactive)
[36]
  GI50: > 100 µM (inactive)
[37]
  GI50: > 100 µM (inactive)
[38]
  GI50: > 100 µM (inactive)
[39]
  GI50: 97.9 µM (inactive)
[40]
  GI50: 75.2 µM
[41]
  GI50: 48.3 µM (inactive)
[42]
  GI50: > 100 µM (inactive)
[43]
  GI50: > 100 µM (inactive)
[44]
  GI50: 90.4 µM (inactive)
[45]
  GI50: 65.6 µM (inactive)
[46]
  GI50: 33.9 µM (inactive)
[47]
  GI50: > 100 µM (inactive)
[48]
  GI50: 73.8 µM (inactive)
[49]
  GI50: 64.3 µM (inactive)
[50]
  GI50: 11.8 µM (inactive)
[51]
  GI50: > 100 µM (inactive)
[52]
  GI50: > 100 µM (inactive)
[53]
  GI50: 66.4 µM (inactive)
[54]
  GI50: > 100 µM (inactive)
[55]
  GI50: > 100 µM (inactive)
[56]
  GI50: > 100 µM (inactive)
[57]
  GI50: > 100 µM (inactive)
[58]
  GI50: > 100 µM (inactive)

## COC1OC2COC(c3ccccc3)OC2C(OC(=S)c2ccccc2)C1O (configuration not stated)
[1]
  GI50: 7.76 µM (inactive)
[2]
  GI50: 75.5 µM (inactive)
[3]
  GI50: 4.45 µM (inactive)
[4]
  GI50: 27 µM (inactive)
[5]
  GI50: 11.5 µM (inactive)
[6]
  GI50: > 100 µM (inactive)
[9]
  GI50: 1.91 µM (inactive)
[10]
  GI50: 16.9 µM (inactive)
[11]
  GI50: > 100 µM (inactive)
[12]
  GI50: 51.1 µM (inactive)
[13]
  GI50: > 100 µM (inactive)
[14]
  GI50: 15.5 µM (inactive)
[15]
  GI50: 28.2 µM (inactive)
[16]
  GI50: > 100 µM (inactive)
[17]
  GI50: 41 µM (inactive)
[18]
  GI50: 19.2 µM (inactive)
[20]
  GI50: 65.9 µM (inactive)
[21]
  GI50: 10.9 µM (inactive)
[22]
  GI50: 46.3 µM (inactive)
[23]
  GI50: > 100 µM (inactive)
[24]
  GI50: > 100 µM (inactive)
[26]
  GI50: 0.662 µM (active)
[27]
  GI50: > 100 µM (inactive)
[28]
  GI50: 82.4 µM (inactive)
[29]
  GI50: > 100 µM (inactive)
[30]
  GI50: 13.2 µM (inactive)
[31]
  GI50: > 100 µM (inactive)
[32]
  GI50: 27.2 µM (inactive)
[34]
  GI50: 13.4 µM (inactive)
[35]
  GI50: 28.8 µM (inactive)
[36]
  GI50: > 100 µM (inactive)
[37]
  GI50: 14.3 µM (inactive)
[38]
  GI50: > 100 µM (inactive)
[39]
  GI50: 4.61 µM (inactive)
[40]
  GI50: > 100 µM
[41]
  GI50: > 100 µM (inactive)
[42]
  GI50: 0.358 µM (active)
[43]
  GI50: > 100 µM (inactive)
[44]
  GI50: 14.7 µM (inactive)
[45]
  GI50: 12 µM (inactive)
[46]
  GI50: 13.9 µM (inactive)
[47]
  GI50: > 100 µM (inactive)
[48]
  GI50: > 100 µM (inactive)
[49]
  GI50: > 100 µM (inactive)
[50]
  GI50: > 100 µM (inactive)
[52]
  GI50: > 100 µM (inactive)
[53]
  GI50: > 100 µM (inactive)
[54]
  GI50: 12 µM (inactive)
[55]
  GI50: 25.1 µM (inactive)
[56]
  GI50: > 100 µM (inactive)
[57]
  GI50: > 100 µM (inactive)
[58]
  GI50: > 100 µM (inactive)
